Tested on: small cell lung cancer cell lines
Experiment: qRT-PCR time- and dosage-dependent expression change of candidate PD markers ASCL1, GRP, NOTCH1 in SCLC cell lines
Assay type: cell-based, human
Description: Seven small cell lung cancer cell lines were treated with 0.1 nM, 1 nM and 10 nM (trans)-N1-((1R,2S)-2-phenylcyclopropyl)cyclohexane-1,4-diamine or vehicle 24 hr, 96 hr and 7 days. Lysates were prepared by lysis in RNA lysis buffer containing 1% β-mercaptoethanol. RNA extraction was performed using a Maxwell 16 instrument and a Maxwell 16 LEV simply RNA cells Kit (Promega), according to the manufacturer's instructions. The mRNA expression levels of each cell line after treatment were then measured using qRT-PCR. The RT-qPCR reaction was conducted using a one-step kit (ABI), with a duplexed house-keeping control (Assay ID Hs02800695_m1) using the assays in the table below. The log 2 fold changes for each gene were calculated by comparing with the vehicle controlled samples at 24 hr sampling point.
Table 6 contains the dose-dependent effect on expression changes for candidate PD markers ASCL1 (Assay ID Hs04187546_g1), GRP (Assay ID Hs01107047_m1) and NOTCH1 (Assay ID Hs01062014_m1).

[1] = LSD1i responsive cell lines, qRT-PCR
[2] = NCI-H69, 0.1 nM, 24 hrs, vs vehicle at 24 hr
[3] = NCI-H69, 0.1 nM, 96 hrs, vs vehicle at 24 hr
[4] = NCI-H69, 0.1 nM, 168 hrs, vs vehicle at 24 hr
[5] = NCI-H69, 1 nM, 24 hrs, vs vehicle at 24 hr
[6] = NCI-H69, 1 nM, 96 hrs, vs vehicle at 24 hr
[7] = NCI-H69, 1 nM, 168 hrs, vs vehicle at 24 hr
[8] = NCI-H69, 10 nM, 24 hrs, vs vehicle at 24 hr
[9] = NCI-H69, 10 nM, 96 hrs, vs vehicle at 24 hr
[10] = NCI-H69, 10 nM, 168 hrs, vs vehicle at 24 hr

N[C@H]1CC[C@H](N[C@@H]2C[C@H]2c2ccccc2)CC1 [RG6016, (trans)-N1-((1R,2S)-2-phenylcyclopropyl)cyclohexane-1,4-diamine]
Log2_FC ASCL1 (DMS-114, 0.1 nM, 24 hrs): −0.28
Log2_FC GRP (DMS-114, 0.1 nM, 24 hrs): 0.32
Log2_FC NOTCH1 (DMS-114, 0.1 nM, 24 hrs): −0.47
Log2_FC ASCL1 (DMS-114, 0.1 nM, 96 hrs): 0.18
Log2_FC GRP (DMS-114, 0.1 nM, 96 hrs): 0.25
Log2_FC NOTCH1 (DMS-114, 0.1 nM, 96 hrs): −0.11
Log2_FC ASCL1 (DMS-114, 0.1 nM, 168 hrs): 0.93
Log2_FC GRP (DMS-114, 0.1 nM, 168 hrs): 0.08
Log2_FC NOTCH1 (DMS-114, 0.1 nM, 168 hrs): 0.08
Log2_FC ASCL1 (DMS-114, 1 nM, 24 hrs): −0.50
Log2_FC GRP (DMS-114, 1 nM, 24 hrs): 0.45
Log2_FC NOTCH1 (DMS-114, 1 nM, 24 hrs): −0.47
Log2_FC ASCL1 (DMS-114, 1 nM, 96 hrs): −0.04
Log2_FC GRP (DMS-114, 1 nM, 96 hrs): −0.34
Log2_FC NOTCH1 (DMS-114, 1 nM, 96 hrs): −0.23
Log2_FC ASCL1 (DMS-114, 1 nM, 168 hrs): 1.02
Log2_FC GRP (DMS-114, 1 nM, 168 hrs): 0.86
Log2_FC NOTCH1 (DMS-114, 1 nM, 168 hrs): 0.08
Log2_FC ASCL1 (DMS-114, 10 nM, 24 hrs): −0.52
Log2_FC GRP (DMS-114, 10 nM, 24 hrs): 0.51
Log2_FC NOTCH1 (DMS-114, 10 nM, 24 hrs): −0.35
Log2_FC ASCL1 (DMS-114, 10 nM, 96 hrs): −0.38
Log2_FC GRP (DMS-114, 10 nM, 96 hrs): 0.67
Log2_FC NOTCH1 (DMS-114, 10 nM, 96 hrs): −0.30
Log2_FC ASCL1 (DMS-114, 10 nM, 168 hrs): 0.94
Log2_FC GRP (DMS-114, 10 nM, 168 hrs): −0.12
Log2_FC NOTCH1 (DMS-114, 10 nM, 168 hrs): 0.13
Regulation of ASCL1 (FIG. 8) [1]: down
Regulation of GRP (FIG. 8) [1]: down
Regulation of NOTCH1 (FIG. 8) [1]: up
Log2_FC ASCL1 [2]: −0.47
Log2_FC GRP [2]: −0.77
Log2_FC NOTCH1 [2]: −0.17
Log2_FC ASCL1 [3]: −0.63
Log2_FC GRP [3]: −1.46
Log2_FC NOTCH1 [3]: 0.57
Log2_FC ASCL1 [4]: −0.75
Log2_FC GRP [4]: −1.26
Log2_FC NOTCH1 [4]: 0.94
Log2_FC ASCL1 [5]: −0.71
Log2_FC GRP [5]: −0.51
Log2_FC NOTCH1 [5]: 0.26
Log2_FC ASCL1 [6]: −1.33
Log2_FC GRP [6]: −2.14
Log2_FC NOTCH1 [6]: 2.26
Log2_FC ASCL1 [7]: −1.36
Log2_FC GRP [7]: −2.12
Log2_FC NOTCH1 [7]: 2.38
Log2_FC ASCL1 [8]: −0.80
Log2_FC GRP [8]: −0.97
Log2_FC NOTCH1 [8]: 1.33
Log2_FC ASCL1 [9]: −1.40
Log2_FC GRP [9]: −2.19
Log2_FC NOTCH1 [9]: 2.42
Log2_FC ASCL1 [10]: −1.62
Log2_FC GRP [10]: −2.85
Log2_FC NOTCH1 [10]: 3.22
Log2_FC ASCL1 (NCI-H187, 0.1 nM, 24 hrs): 0.07
Log2_FC GRP (NCI-H187, 0.1 nM, 24 hrs): 0.16
Log2_FC NOTCH1 (NCI-H187, 0.1 nM, 24 hrs): −0.27
Log2_FC ASCL1 (NCI-H187, 0.1 nM, 96 hrs): 0.24
Log2_FC GRP (NCI-H187, 0.1 nM, 96 hrs): −0.29
Log2_FC NOTCH1 (NCI-H187, 0.1 nM, 96 hrs): 0.10
Log2_FC ASCL1 (NCI-H187, 0.1 nM, 168 hrs): 0.11
Log2_FC GRP (NCI-H187, 0.1 nM, 168 hrs): −0.50
Log2_FC NOTCH1 (NCI-H187, 0.1 nM, 168 hrs): 0.27
Log2_FC ASCL1 (NCI-H187, 1 nM, 24 hrs): −0.01
Log2_FC GRP (NCI-H187, 1 nM, 24 hrs): 0.05
Log2_FC NOTCH1 (NCI-H187, 1 nM, 24 hrs): 0.49
Log2_FC ASCL1 (NCI-H187, 1 nM, 96 hrs): 0.05
Log2_FC GRP (NCI-H187, 1 nM, 96 hrs): −0.03
Log2_FC NOTCH1 (NCI-H187, 1 nM, 96 hrs): 0.81
Log2_FC ASCL1 (NCI-H187, 1 nM, 168 hrs): 0.16
Log2_FC GRP (NCI-H187, 1 nM, 168 hrs): −0.59
Log2_FC NOTCH1 (NCI-H187, 1 nM, 168 hrs): 0.95
Log2_FC ASCL1 (NCI-H187, 10 nM, 24 hrs): 0.13
Log2_FC GRP (NCI-H187, 10 nM, 24 hrs): −0.16
Log2_FC NOTCH1 (NCI-H187, 10 nM, 24 hrs): 0.42
Log2_FC ASCL1 (NCI-H187, 10 nM, 96 hrs): 0.13
Log2_FC GRP (NCI-H187, 10 nM, 96 hrs): −0.61
Log2_FC NOTCH1 (NCI-H187, 10 nM, 96 hrs): 0.83
Log2_FC ASCL1 (NCI-H187, 10 nM, 168 hrs): 0.07
Log2_FC GRP (NCI-H187, 10 nM, 168 hrs): −0.67
Log2_FC NOTCH1 (NCI-H187, 10 nM, 168 hrs): 1.44
Log2_FC ASCL1 (NCI-H446, 0.1 nM, 24 hrs): −0.27
Log2_FC NOTCH1 (NCI-H446, 0.1 nM, 24 hrs): −0.04
Log2_FC NOTCH1 (NCI-H446, 0.1 nM, 96 hrs): −0.13
Log2_FC ASCL1 (NCI-H446, 0.1 nM, 168 hrs): −0.56
Log2_FC NOTCH1 (NCI-H446, 0.1 nM, 168 hrs): −0.40
Log2_FC ASCL1 (NCI-H446, 1 nM, 24 hrs): 0.00
Log2_FC NOTCH1 (NCI-H446, 1 nM, 24 hrs): −0.02
Log2_FC ASCL1 (NCI-H446, 1 nM, 96 hrs): −0.20
Log2_FC NOTCH1 (NCI-H446, 1 nM, 96 hrs): 0.06
Log2_FC ASCL1 (NCI-H446, 1 nM, 168 hrs): 0.02
Log2_FC NOTCH1 (NCI-H446, 1 nM, 168 hrs): 0.29
Log2_FC ASCL1 (NCI-H446, 10 nM, 24 hrs): −0.34
Log2_FC NOTCH1 (NCI-H446, 10 nM, 24 hrs): 0.04
Log2_FC NOTCH1 (NCI-H446, 10 nM, 96 hrs): 0.16
Log2_FC ASCL1 (NCI-H446, 10 nM, 168 hrs): 0.58
Log2_FC NOTCH1 (NCI-H446, 10 nM, 168 hrs): 0.42
Log2_FC NOTCH1 (NCI-H510A, 0.1 nM, 24 hrs, vs vehicle at 24 hr): 0.53
Log2_FC NOTCH1 (NCI-H510A, 0.1 nM, 96 hrs, vs vehicle at 24 hr): 1.93
Log2_FC NOTCH1 (NCI-H510A, 0.1 nM, 168 hrs, vs vehicle at 24 hr): 3.00
Log2_FC ASCL1 (NCI-H510A, 0.1 nM, 24 hrs): 0.07
Log2_FC GRP (NCI-H510A, 0.1 nM, 24 hrs): 0.22
Log2_FC ASCL1 (NCI-H510A, 0.1 nM, 96 hrs): 0.17
Log2_FC GRP (NCI-H510A, 0.1 nM, 96 hrs): −0.30
Log2_FC ASCL1 (NCI-H510A, 0.1 nM, 168 hrs): 0.03
Log2_FC GRP (NCI-H510A, 0.1 nM, 168 hrs): −0.44
Log2_FC ASCL1 (NCI-H510A, 1 nM, 24 hrs): −0.23
Log2_FC GRP (NCI-H510A, 1 nM, 24 hrs): −0.30
Log2_FC NOTCH1 (NCI-H510A, 1 nM, 24 hrs): 1.19
Log2_FC ASCL1 (NCI-H510A, 1 nM, 96 hrs): −0.50
Log2_FC GRP (NCI-H510A, 1 nM, 96 hrs): −1.75
Log2_FC NOTCH1 (NCI-H510A, 1 nM, 96 hrs): 2.87

Source: patent US20190256929A1, “PHARMACODYNAMIC BIOMARKERS FOR PERSONALIZED CANCER CARE USING EPIGENETIC MODIFYING AGENTS” (ORYZON GENOMICS, S.A., priority 2016, published 2019)
